Source: patent US8178568B2, “Sulfone compounds which modulate the CB2 receptor” (Boehringer Ingelheim International GmbH, priority 2008, dated 2012)

target: T1, human CB2R (Homo sapiens, UniProt P34972); experiment: CB2R mediated modulation of cAMP synthesis; type: cell-based; conditions: not given
T1 construct: host or cells: CHO cells
Experimental: B. CB2R Mediated Modulation of cAMP Synthesis:
Compounds of the invention were evaluated for their CB2 agonist or inverse agonistic activity in accordance with the following experimental method.
CHO cells expressing human CB2R (Euroscreen) were plated at a density of 5000 cells per well in 384 well plates and incubated overnight at 37° C. After removing the media, the cells were treated with test compounds diluted in stimulation buffer containing 1 mM IBMX, 0.25% BSA and 10 uM Forskolin. The assay was incubated for 30 minutes at 37° C. Cells were lysed and the cAMP concentration was measured using DiscoverX-XS cAMP kit, following the manufacturer's protocol. In this setting, agonists will decrease forskolin induced production of cAMP while inverse agonists will further increase forskolin induced production of cAMP. EC50 of agonists were calculated as follows. The maximal amount of cAMP produced by forskolin compared to the level of cAMP inhibited by 1 uM CP55940 is defined as 100%. The EC50 value of each test compound was determined as the concentration at which 50% of the forskolin-stimulated cAMP synthesis was inhibited. Data was analyzed using a four-parameter logistic model. (Model 205 of XLfit 4.0).

T1 sequence (P34972 whole entry): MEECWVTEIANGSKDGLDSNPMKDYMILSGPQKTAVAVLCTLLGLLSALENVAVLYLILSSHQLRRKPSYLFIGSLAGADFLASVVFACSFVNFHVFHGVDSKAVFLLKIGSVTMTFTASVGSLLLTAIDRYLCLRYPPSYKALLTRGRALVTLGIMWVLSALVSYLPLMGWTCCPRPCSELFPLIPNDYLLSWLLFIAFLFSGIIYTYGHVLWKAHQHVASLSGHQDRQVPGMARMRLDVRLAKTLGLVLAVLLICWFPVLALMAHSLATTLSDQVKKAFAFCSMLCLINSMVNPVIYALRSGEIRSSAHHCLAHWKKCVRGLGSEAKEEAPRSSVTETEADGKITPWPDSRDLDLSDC

| Compound | EC50 [nM] |
| --- | --- |
| CC(C)(C)c1cc(N2CC[C@@](C)(S(=O)(=O)c3ccc(Cl)cc3)C2=O)on1 | 37 |
| CC(C)(C)c1cc(N2CC[C@](C)(S(=O)(=O)c3ccc(Cl)cc3)C2=O)on1 | 25 |
| CC(C)(C)c1cc(N2CCC(C)(S(=O)(=O)c3ccc(Cl)cc3)C2=O)no1 (stereo not drawn) | 14 |
| CC(C)(C)c1cc(NC(=O)C(C)(CCO)S(=O)(=O)C2CCOCC2)on1 (stereo not drawn) | 21 |
| CC(C)(C)c1cc(NC(=O)C(C)(CCO)S(=O)(=O)c2ccc(Cl)cc2)on1 (stereo not drawn) | 17 |
| CC(C)(C)c1cc(N2CCC(C)(S(=O)(=O)c3ccc(Cl)cc3)C2=O)on1 (stereo not drawn) | 25 |

same assay, conditions: Table III, formula I compounds; CHO cells expressing human CB2R, inhibition of forskolin-stimulated cAMP synthesis; read-out: CB2 EC50

| Compound | EC50 [nM] |
| --- | --- |
| CC(C)(C)c1cc(N2CCC(C)(S(=O)(=O)C3CCOCC3)C2=O)on1 (stereo not drawn) | 220 |
| CC1(S(=O)(=O)c2ccc(Cl)cc2)CCN(c2nnc(-c3ccccc3)[nH]2)C1=O (stereo not drawn) | 20 |

same assay, conditions: Table VI, formula IB compounds; CHO cells expressing human CB2R, inhibition of forskolin-stimulated cAMP synthesis; read-out: CB2 EC50

| EC50 [nM] | Compound |
| --- | --- |
| 544 | O=C(Nc1nc(-c2ccccc2)ns1)C(CCO)S(=O)(=O)c1ccc(Cl)cc1 (stereo not drawn) |
